Results taken from PMC3033228 (Clinical colorectal cancer, 2010).
Like-named read-outs stand apart in the source and are kept apart here. Each block holds one compound with its values, some of them ahead of it.

Assays:
[1] = 5-Fluorouracil plasma pharmacokinetics; type: in vivo, human; details: for 5-Fluorouracil Cl: DL 3 (erlotinib 150 mg), individual values (n = 2)
[2] = human, in vivo
[3] = population pharmacokinetic analysis; cited from earlier work
clinical = details: human, in vivo; for Cmax: Erlotinib Cmax
patients = details: cited from earlier work
[4] = system: patients with advanced colorectal cancer; assay: Phase I toxicity assessment; details: with FOLFOX4 with or without bevacizumab, oral, advanced CRC
CRC = details: cited from earlier work

5-Fluorouracil Cl ([1]; column Combination): 313.2 L/h | 5-Fluorouracil Cl ([1]; column Single Agent): 217.4 L/h | 5-Fluorouracil systemic clearance, effect of co-administration of erlotinib ([1]; P = .97): not markedly affected
Structure (SMILES): O=c1[nH]cc(F)c(=O)[nH]1 [5-Fluorouracil]

OSI-420 Cmax ([2]; 50 mg): 60.8 ± 16.1 (3) ng/mL | OSI-420 Tmax ([2]; 50 mg): 2.00 (1.08–2.00, 3) hour | OSI-420 Cmax ([2]; 100 mg): 67.8 ± 49.1 (8) ng/mL | OSI-420 Tmax ([2]; 100 mg): 3.00 (1.03–25.03, 8) hour | OSI-420 Cmax ([2]; 150 mg): 193.2 ± 92.6 (3) ng/mL | OSI-420 Tmax ([2]; 150 mg): 9.95 (2.07–24.08, 3) hour
Structure (SMILES): C#Cc1cccc(Nc2ncnc3cc(OCCOC)c(OCCO)cc23)c1 [OSI-420]
OSI-420 exposure as share of erlotinib exposure [3]: approximately 10%

Structure (SMILES): C#Cc1cccc(Nc2ncnc3cc(OCCOC)c(OCCOC)cc23)c1 [erlotinib]
Tmax (clinical; 50 mg, Erlotinib Tmax): 1.08 h | Cmax (clinical; 100 mg): 985 ± 576 ng/mL | Cmax (clinical; 150 mg): 1960 ± 1160 ng/mL | Dose level at which grade 3 diarrhea occurred (patients): 200 mg | Patients experiencing diarrhea (patients; erlotinib 100 mg/day): 25% | Patients experiencing diarrhea (patients; erlotinib 150 mg/day): 86% | Maximum tolerated dose (MTD) of erlotinib [4]: 100 mg daily | Response rates (RRs) of monotherapy trials (CRC): negligible

Structure (SMILES): COc1cc2ncnc(Nc3ccc(F)c(Cl)c3)c2cc1OCCCN1CCOCC1 [gefitinib]
Response rates (RRs) of monotherapy trials (CRC): negligible
